In patent US10093642B2, “Multitarget hedgehog pathway inhibitors and uses thereof” (UNIVERSITA' DEGLI STUDI DI SIENA, priority 2013, dated 2018):

How the values were obtained:
Gli1-GST fusion protein = assay: NMR relaxation speed of Glabrescione B protons in presence of Gli1-GST; assay type: binding; settings: 0.412 mM
Experimental: A sample of Glabrescione B 0.412 mM in DMSO-d6 was prepared and added to 20 μL of a solution of Gli1-GST (Glutathione S-transferase) fusion protein at 5 μg/μL, providing a molar ratio of Glabrescione B/Gli1-GST of 150:1. […] In experimental conditions, Glabrescione B protons experiencing the most significant perturbation of the relaxation speed, due to the presence of Gli1-GST, belong to the ring A of the isoflavone nucleus, namely aromatic protons H1, H3 and those belonging to methoxyl groups 2′ and 4′.

[1] = system: HepG2 hepatocellular carcinoma cells; assay: Effect on Hh-independent HepG2 cells; assay type: cell-based
[2] = system: Hh signaling in mouse cerebellar progenitors; assay: Hh target mRNA in cerebellar progenitors of 6-day old mice after s.c. injection; assay type: in vivo, CD1 mice; settings: 100 μmol/Kg s.c. for 2 days
Description: To assess the in vivo activity of Glabrescione B, we first tested its ability to suppress Hh signaling in 6-day old mouse cerebellar progenitors, considered the cell of origin of MB. 6-day old CD1 mice were randomly divided into two groups (n=6) and injected s.c. with solvent only (2-hydroxypropyl-β-cyclodextrin:ethanol, 3:1) or Glabrescione B in solvent (100 μmol/Kg) for 2 days (2-hydroxypropyl-β-cyclodextrin was purchased from Sigma Aldrich, St. Louis, Mo., USA). Cerebella were collected and mRNA levels were determined by qRT-PCR.

MEF-SuFu−/− cells = assay: Gli1 mRNA (quantitative RT-PCR) in MEF-SuFu−/− cells; assay type: cell-based, mouse; settings: different concentrations, 48 h
Experimental: FIG. 9. Confluent MEF-SuFu^−/− cells were treated with DMSO (0.5%, vehicle), GANT61 (10 μM, as positive control) or different concentrations of Glabrescione B for 48 h. Gli1 mRNA levels were determined by quantitative RT-PCR, normalizing to HPRT expression. Error bars indicate SD.
To analyze the antagonist properties of Glabrescione B under more physiological conditions, the inventors used MEF-Ptch^−/− cells, embryo fibroblasts derived from Ptch^−/− mouse, in which the activation of Hh signaling is consequence of Ptch1 deletion. Since Patched acts as upstream repressor of SMO, inhibition of the Hedgehog pathway from Patched is prevented and the Hedgehog pathway is constitutively activated in this cell lines, which turned out to be a reliable cellular model for studying the effect of Hedgehog inhibitors. […]
To further elucidate the concept of downstream pathway inhibition by Glabrescione B, the inventors used MEF-SuFu^−/− cells (a kind gift by R. Toftgard, Karolinska Institutet, Sweden, Svärd, J. et al, 2006), in which the downstream Hh pathway activation is consequence of SuFu genetic ablation. Confluent cells were treated with Glabrescione B at the amount indicated in the FIG. 9 and Gli1 expression levels were determined by quantitative RT-PCR as previously described. […]

COc1cc(OC)c2c(=O)c(-c3ccc(OCC=C(C)C)c(OCC=C(C)C)c3)coc2c1 [Glabrescione B, 3-(3′,4′-bis(3-methylbut-2-enyloxy)phenyl)-5,7-dimethoxy-4H-chromen-4-one]
Normalized relaxation speed ΔR/Rf, GlaB:Gli1-GST 1:150 (Gli1-GST fusion protein; proton 1): 0.341
Normalized relaxation speed ΔR/Rf, GlaB:Gli1-GST 1:150 (Gli1-GST fusion protein; proton 2′): 0.267
Normalized relaxation speed ΔR/Rf, GlaB:Gli1-GST 1:150 (Gli1-GST fusion protein; proton 3): 0.206
Normalized relaxation speed ΔR/Rf, GlaB:Gli1-GST 1:150 (Gli1-GST fusion protein; proton 4′): 0.482
Normalized relaxation speed ΔR/Rf, GlaB:Gli1-GST 1:150 (Gli1-GST fusion protein; proton 8): 0.028
Normalized relaxation speed ΔR/Rf, GlaB:Gli1-GST 1:150 (Gli1-GST fusion protein; proton 11): 0.286
Normalized relaxation speed ΔR/Rf, GlaB:Gli1-GST 1:150 (Gli1-GST fusion protein; proton 12): 0
Normalized relaxation speed ΔR/Rf, GlaB:Gli1-GST 1:150 (Gli1-GST fusion protein; proton 15): 0.329
Normalized relaxation speed ΔR/Rf, GlaB:Gli1-GST 1:150 (Gli1-GST fusion protein; proton 19): 0
effect on HepG2 cells [1]: no effect
cerebellar levels of Hh target genes (mRNA) [2]: reduced significantly
Gli1 expression levels (quantitative RT-PCR) (MEF-SuFu−/− cells): significant reduction of the high expression levels of Gli1
